Patent US20240344020A1, “CULTURE MEDIUM FOR LUNG CANCER EPITHELIAL CELLS, CULTURE METHOD, AND APPLICATION THEREOF” (PRECEDO PHARMACEUTICALS CO., LTD, priority 2021, published 2024)

B1: fibroblast growth factor 7: growth factor from Sino Biological Inc. (protein, UniProt P21781 32-194, looked up)
Fibroblast growth factor 7: CNDMTPEQMATNVNCSSPERHTRSYDYMEGGDIRVRRLFCRTQWYLRIDKRGKVKGTQEMKNNYNIMEIRTVAVGIVAIKGVESEFYLAMNKEGKLYAKKECNEDCNFKELILENHYNTYASAKWTHNGGEMFVALNQKGIPVRGKKTKKEQKTAHFLPMAIT

system: primary lung cancer cells (No. B5); assay: Effects of different factors added to basic medium BM on proliferation of primary lung cancer cells (cell count after 12 days); format: cell-based, human; settings: factor added alone to BM at the concentrations of Table 3; 12 days culture; FIGS. 1A-D
Protocol: Extracellular matrix gel (Matrigel®) (manufactured by BD Biosciences) was diluted with serum-free DMEM/F12 medium at a ratio of 1:100 to prepare an extracellular matrix diluent. The extracellular matrix diluent was added to a 48-well culture plate with 500 μl/well to completely cover the bottom of the wells of the culture plate. The culture plate was let stand for 1 hour in a 37° C. incubator. After 1 hour, the extracellular matrix diluent was removed to provide a Matrigel-coated plate.
Preparation of basic medium (abbreviated as BM): BM was prepared by adding 0.2 vol. % of Primocin (purchased from Invivogen, with a concentration of 50 mg/ml) to the commercial DMEM/F-12 medium to provide a final concentration of 100 μg/ml.
Next, different kinds and concentrations of additive factors (Table 3) were added to the basic medium (BM), so as to prepare culture mediums for lung cancer epithelial cells containing different additive components.
The culture mediums with different components were added at a volume of 500 μl/well to 48-well plates which were coated with extracellular matrix gel (Matrigel). Lung cancer cells (No. B5) isolated from lung cancer tissues according to the same method as described in Example 1 were inoculated at a cell density of 2×10^4 cells/cm^2 in the above-mentioned 48-well culture plates which were coated with Matrigel. After surface disinfection, the plates were placed in a 37° C., 5% CO2 incubator (purchased from Thermo Fisher), and the same number of freshly isolated lung cancer tumor cells (No. B5) were cultured under different medium formulations. The culture mediums were replaced every 4 days after the start of culture. After 12 days of culture, cell counts were performed. The basic medium (BM) without addition of any additive was used as a control. The results were shown in FIGS. 1A-D. The ordinate in the figures represents the ratio of the number of cells obtained after culture in different mediums to the number of cells obtained after culture in basic medium BM.

Molecule	effect on cell proliferation (ratio of cell number to that in basic medium BM)
hepatocyte growth factor: growth factor from Sino Biological Inc.	certain promoting effects on cell proliferation
CN1C(=O)C(c2c(F)cccc2F)N(C)c2nc(Nc3ccc(S(N)(=O)=O)cc3)ncc21 (stereo not shown) [Compound 1, 4-((7-(2,6-difluorophenyl)-5,8-dimethyl-6-oxo-5,6,7,8-tetrahydropteridin-2-yl)amino)benzsulfamide]	certain promoting effects on cell proliferation
insulin-like growth factor 1: growth factor from Sino Biological Inc.	certain promoting effects on cell proliferation
Cc1cccc(-c2nn(C(=S)Nc3ccccc3)cc2-c2ccnc3ccccc23)n1 [Compound A83-01, A83-01, reference compound]	certain promoting effects on cell proliferation
interleukin 6: cytokine from Sino Biological Inc.	certain promoting effects on cell proliferation
C[C@@H](N)[C@H]1CC[C@H](C(=O)Nc2ccncc2)CC1 [Compound Y27632, Y27632, reference compound]	certain promoting effects on cell proliferation
B1	certain promoting effects on cell proliferation
